Assay results as given in ChEMBL document CHEMBL5537125, “Discovery of C-3 isoxazole substituted thiochromone S,S-dioxide derivatives as potent and selective inhibitors for monoamine oxidase B (MAO-B)” (Eur J Med Chem, 2024).
One block for each compound: values may come before it. Calls of active or inactive are those of the source. The calls are words filed in the database; no cut-off is given here.

Columns and labels:
[1] = Solubility of compound in DMSO; format: physicochemical
[2] = Solubility of compound in phosphate buffer; format: physicochemical
MCF7 = experiment: Antiproliferative activity against human MCF7 cells assessed as reduction in cell viability incubated for 24 hrs by MTT assay; format: functional, cell-based; details: MCF7, 24 h
[3] = biological target: T1, Amine oxidase [flavin-containing] A (Homo sapiens, UniProt P21397); experiment: Inhibition of human recombinant MAO-A using tyramine as substrate incubated for 20 mins by fluorometric assay
T1 sequence (P21397 whole entry): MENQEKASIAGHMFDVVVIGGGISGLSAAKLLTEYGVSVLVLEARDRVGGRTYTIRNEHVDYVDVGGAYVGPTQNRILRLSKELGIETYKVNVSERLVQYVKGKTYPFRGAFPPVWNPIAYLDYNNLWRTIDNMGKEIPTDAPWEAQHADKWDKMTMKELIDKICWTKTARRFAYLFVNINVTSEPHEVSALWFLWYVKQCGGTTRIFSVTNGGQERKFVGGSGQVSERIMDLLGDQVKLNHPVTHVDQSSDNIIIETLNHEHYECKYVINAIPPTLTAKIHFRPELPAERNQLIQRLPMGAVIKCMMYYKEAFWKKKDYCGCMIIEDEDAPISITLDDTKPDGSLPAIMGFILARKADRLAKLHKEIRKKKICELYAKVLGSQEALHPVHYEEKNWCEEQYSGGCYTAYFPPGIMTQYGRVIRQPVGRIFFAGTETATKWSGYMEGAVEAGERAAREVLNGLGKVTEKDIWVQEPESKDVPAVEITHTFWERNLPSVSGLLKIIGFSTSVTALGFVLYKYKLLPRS

[4] = n-Octanol/water partition coefficient, logP of the compound at pH 7.4 by HPLC analysis; format: physicochemical
SH-SY5Y [5] = experiment: Cytotoxicity against differentiated human SH-SY5Y cells assessed as reduction in cell viability by measuring MTT reduction at 4 uM incubated for 24 hrs by MTT assay relative to control; format: toxicity, cell-based
MGC-803 [6] = experiment: Antiproliferative activity against human MGC-803 cells assessed as reduction in cell viability at 0.5 to 128 uM incubated for 24 hrs by MTT assay; format: functional, cell-based; details: dose 0.5-128 µM
VSMC [7] = experiment: Cytotoxicity against differentiated human VSMC cells assessed as reduction in cell viability at 0.5 to 4 uM incubated for 24 hrs by MTT assay; format: toxicity, cell-based; details: dose 0.5-4 µM
HepG2 [8] = experiment: Antiproliferative activity against human HepG2 cells assessed as reduction in cell viability at 0.5 to 128 uM incubated for 24 hrs by MTT assay; format: functional, cell-based; details: dose 0.5-128 µM
[9] = biological target: T2, Amine oxidase [flavin-containing] B (Homo sapiens, UniProt P27338); experiment: Inhibition of human recombinant MAO-B using tyramine as substrate incubated for 20 mins by fluorometric assay
T2 sequence (P27338 whole entry): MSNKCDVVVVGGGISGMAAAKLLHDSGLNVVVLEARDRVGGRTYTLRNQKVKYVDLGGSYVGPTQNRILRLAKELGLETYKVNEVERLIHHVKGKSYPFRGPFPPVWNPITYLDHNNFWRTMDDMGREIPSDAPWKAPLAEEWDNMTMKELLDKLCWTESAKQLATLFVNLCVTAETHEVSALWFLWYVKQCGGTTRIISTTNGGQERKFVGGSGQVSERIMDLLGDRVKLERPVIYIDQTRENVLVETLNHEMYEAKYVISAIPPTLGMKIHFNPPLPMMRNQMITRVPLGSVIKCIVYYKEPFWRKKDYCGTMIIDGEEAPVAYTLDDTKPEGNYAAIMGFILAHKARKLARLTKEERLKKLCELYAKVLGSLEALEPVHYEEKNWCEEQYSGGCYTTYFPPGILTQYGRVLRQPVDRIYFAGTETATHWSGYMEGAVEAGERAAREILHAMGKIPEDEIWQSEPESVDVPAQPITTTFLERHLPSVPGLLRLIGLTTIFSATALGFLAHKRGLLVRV

[10] = Cytotoxicity against differentiated human SH-SY5Y cells assessed as cell proliferation at 4 uM incubated for 24 hrs by MTT assay relative to control; format: toxicity, cell-based; details: read-out: Activity
Homo sapiens = species: Homo sapiens; experiment: Selectivity index, ratio of IC50 for human recombinant MAO-A to IC50 for human recombinant MAO-B
[11] = Selectivity index, ratio of IC50 for MAO-A (unknown origin) to IC50 for human recombinant MAO-B
[12] = biological target: T2, Amine oxidase [flavin-containing] B; experiment: Inhibition of human MAO-B
[13] = biological target: T1, Amine oxidase [flavin-containing] A; experiment: Inhibition of human recombinant MAO-A using tyramine as substrate at 10 uM incubated for 20 mins by fluorometric assay relative to control
HCT-116 = experiment: Antiproliferative activity against human HCT-116 cells assessed as reduction in cell viability incubated for 24 hrs by MTT assay; format: functional, cell-based; details: HCT-116, 24 h
SH-SY5Y [14] = experiment: Induction of ROS production in human SH-SY5Y cells assessed as increase in oxidative damage at 2 to 4 uM incubated for 24 hrs by DCFH-DA staining based fluorescence microscopic analysis; format: functional, cell-based; details: dose 2-4 µM
VSMC [15] = experiment: Cytotoxicity against human VSMC cells assessed as reduction in cell viability at 0.5 uM incubated for 24 hrs by MTT assay relative to control; format: toxicity, cell-based
MGC-803 [16] = experiment: Antiproliferative activity against human MGC-803 cells assessed as reduction in cell viability incubated for 24 hrs by MTT assay; format: functional, cell-based; details: MGC-803, 24 h
HepG2 [17] = experiment: Antiproliferative activity against human HepG2 cells assessed as reduction in cell viability incubated for 24 hrs by MTT assay; format: functional, cell-based; details: HepG2, 24 h
[18] = Cytotoxicity against differentiated human SH-SY5Y cells assessed as cell proliferation at 0.5 uM incubated for 24 hrs by MTT assay relative to control; format: toxicity, cell-based; details: read-out: Activity

solubility [1]: Insoluble | solubility [2]: Insoluble
SMILES: O=c1c(-c2cc(-c3cccc(F)c3)no2)csc2ccccc12

IC50 (MCF7): 37.9 µM | IC50 [3]: 21.2 µM | logD [4]: 4.37 | IC50 [9]: 0.002 µM
SMILES: O=c1c(-c2cc(-c3ccccc3C(F)(F)F)no2)csc2ccccc12
Activity (SH-SY5Y [5]): < 90% | Activity (MGC-803 [6]): inactive | Activity (VSMC [7]): Non-Toxic | Activity (HepG2 [8]): inactive | viability at 24 h, 4 µM [10]: 121%

IC50 [3]: 161 µM | logD [4]: 3.71 | Ratio IC50 (Homo sapiens): 4580 | IC50 [9]: 0.0351 µM
SMILES: O=c1c(-c2cc(-c3cccc(C(F)(F)F)c3)no2)csc2ccccc12

logD [4]: 3.72 | IC50 [9]: 1.23 µM
SMILES: O=c1c(-c2cc(-c3ccccc3)no2)csc2ccccc12

IC50 (MCF7): 16 µM | logD [4]: 2.63 | inhibition at 10 µM [13]: 3.8% | IC50 (HCT-116): 52.1 µM | IC50 (MGC-803 [16]): 37.7 µM | IC50 (HepG2 [17]): 99.3 µM | IC50 [9]: 0.0023 µM
SMILES: O=C1C(c2cc(-c3ccccc3C(F)(F)F)no2)=CS(=O)(=O)c2ccccc21
viability at 24 h, 0.5 µM [18]: 108% | Activity (SH-SY5Y [5]): < 90% | Activity (VSMC [7]): Non-Toxic | viability at 24 h, 4 µM [10]: 119%

solubility [1]: Insoluble | solubility [2]: Insoluble
SMILES: COc1cccc(-c2cc(-c3csc4ccccc4c3=O)on2)c1

solubility [1]: Insoluble | solubility [2]: Insoluble
SMILES: O=c1c(-c2cc(-c3cccc(Cl)c3)no2)csc2ccccc12

logD [4]: 3.99 | IC50 [9]: 0.109 µM
SMILES: Cc1ccccc1-c1cc(-c2csc3ccccc3c2=O)on1

solubility [1]: Insoluble | solubility [2]: Insoluble
SMILES: COc1ccc(-c2cc(-c3csc4ccccc4c3=O)on2)cc1

logD [4]: 3.2 | IC50 [9]: 0.0622 µM
SMILES: Cc1ccc(-c2cc(-c3csc4ccccc4c3=O)on2)cc1

IC50 (MCF7): 5.82 µM | logD [4]: 3.39 | inhibition at 10 µM [13]: 10% | IC50 (HCT-116): 21.4 µM | IC50 (MGC-803 [16]): 39.6 µM | IC50 (HepG2 [17]): 83.2 µM | IC50 [9]: 0.0019 µM
SMILES: O=C1C(c2cc(-c3cccc(C(F)(F)F)c3)no2)=CS(=O)(=O)c2ccccc21
Activity (SH-SY5Y [5]): < 90% | Activity (SH-SY5Y [14]): inactive | Activity (VSMC [7]): Non-Toxic | Activity (VSMC [15]): 113%

solubility [1]: Insoluble | solubility [2]: Insoluble
SMILES: O=c1c(-c2cc(-c3ccc(Cl)cc3)no2)csc2ccccc12

solubility [1]: Insoluble | solubility [2]: Insoluble
SMILES: O=c1c(-c2cc(-c3ccc(F)cc3)no2)csc2ccccc12

IC50 [3]: 85.4 µM | logD [4]: 2.55 | Ratio IC50 (Homo sapiens): 7580 | IC50 [9]: 0.0113 µM
SMILES: O=c1c(-c2cc(-c3ccc(C(F)(F)F)cc3)no2)csc2ccccc12

logD [4]: 3.44 | IC50 [9]: 0.53 µM
SMILES: Cc1cccc(-c2cc(-c3csc4ccccc4c3=O)on2)c1

The remaining lines, values behind:

SMILES: Cc1ccccc1-c1cc(C2=CS(=O)(=O)c3ccccc3C2=O)on1
logD [4]: 2.69 | IC50 [9]: 0.137 µM

SMILES: CC(=O)c1ccc(OCc2ccccc2)cc1O
Ratio IC50 [11]: 1190 | IC50 [12]: 0.007 µM

SMILES: COc1ccc(-c2cc(-c3csc4ccccc4c3=O)[nH]n2)cc1
logD [4]: 3.43 | IC50 [9]: 0.0185 µM

SMILES: COc1cccc(-c2cc(C3=CS(=O)(=O)c4ccccc4C3=O)on2)c1
IC50 (MCF7): 4.21 µM | logD [4]: 2.39 | inhibition at 10 µM [13]: 1% | IC50 (HCT-116): 47 µM | Activity (SH-SY5Y [14]): inactive | Activity (VSMC [7]): Non-Toxic | Activity (VSMC [15]): 111% | IC50 (MGC-803 [16]): 43 µM | IC50 (HepG2 [17]): 43.3 µM | IC50 [9]: 0.0051 µM

SMILES: O=C1C(c2cc(-c3ccc(C(F)(F)F)cc3)no2)=CS(=O)(=O)c2ccccc21
logD [4]: 2.37 | inhibition at 10 µM [13]: 2.6% | IC50 [9]: 0.0318 µM

SMILES: Cc1cccc(-c2cc(C3=CS(=O)(=O)c4ccccc4C3=O)on2)c1
logD [4]: 3.23 | IC50 [9]: 0.0982 µM

SMILES: O=C1C(c2cc(-c3ccc(F)cc3)no2)=CS(=O)(=O)c2ccccc21
logD [4]: 2.43 | IC50 [9]: 0.149 µM

SMILES: O=C1C(c2cc(-c3ccc(Cl)cc3)no2)=CS(=O)(=O)c2ccccc21
IC50 (MCF7): 3.77 µM | IC50 [3]: 38.3 µM | logD [4]: 1.82 | Activity (SH-SY5Y [5]): < 90% | Activity (MGC-803 [6]): inactive | IC50 (HCT-116): 53.4 µM | Activity (VSMC [7]): Non-Toxic | IC50 (HepG2 [17]): 55.9 µM | IC50 [9]: 0.0034 µM

SMILES: O=C1C(c2cc(-c3cccc(Cl)c3)no2)=CS(=O)(=O)c2ccccc21
logD [4]: 4.17 | IC50 [9]: 0.0226 µM

SMILES: COc1ccc(-c2cc(C3=CS(=O)(=O)c4ccccc4C3=O)on2)cc1
IC50 (MCF7): 6.02 µM | viability at 24 h, 0.5 µM [18]: 105% | IC50 [3]: 64.4 µM | logD [4]: 2.62 | Activity (SH-SY5Y [5]): < 90% | Activity (MGC-803 [6]): inactive | IC50 (HCT-116): 78.1 µM | Activity (VSMC [7]): Non-Toxic | IC50 (HepG2 [17]): 63.1 µM | IC50 [9]: 0.0034 µM | viability at 24 h, 4 µM [10]: 120%

SMILES: O=C1C(c2cc(-c3ccccc3)no2)=CS(=O)(=O)c2ccccc21
logD [4]: 3.26 | IC50 [9]: 0.896 µM

SMILES: Cc1ccc(C2=NOC(c3ccc(Cl)c(Cl)c3)C2)cc1 (stereo unspecified)
Ratio IC50 (Homo sapiens): > 8350

SMILES: O=C1C(c2cc(-c3cccc(F)c3)no2)=CS(=O)(=O)c2ccccc21
logD [4]: 2.46 | IC50 [9]: 0.44 µM

SMILES: Cc1ccc(-c2cc(C3=CS(=O)(=O)c4ccccc4C3=O)on2)cc1
logD [4]: 2.77 | IC50 [9]: 0.0268 µM
